{"source": "patent US20090263514A1", "about": "“Cold and flu tonic” (priority 2008, published 2009)", "origin": "cited, not measured here", "conditions": "in humans", "data": [{"smiles": "O=C(/C=C/C=C/c1ccc2c(c1)OCO2)N1CCCCC1", "note": "[piperine]", "values": [{"measurement": "bioavailability of curcumin", "result": "enhance bioavailability of curcumin dramatically"}]}]}
